Measured values taken from the supplement of paper PMC10307832.

How the values were obtained:
Assay in all cases: relative viability (nuclei count vs DMSO), 5 days (fraction); higher = more cells survive
NCI-H1355 = system: NCI-H1355
In short: (§1)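 Cells from lung cancer lines were seeded into 1536-well plates and, one day later, dosed by pin tool. Treatments were either a single drug or a fixed dose of an anchor drug with five library-drug doses (not always all listed) in √10 steps. After 5 days, nuclei were stained in a one-step fixation (final 0.05% Triton X-100, 1% formaldehyde, 1 ug/ml Hoechst) and counted on 4× images, and relative viability is the treated-to-vehicle nuclei ratio, as the median of duplicate plates.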

HCC-366 = system: HCC-366
In short: as §1

NCI-H2009 = system: NCI-H2009
In short: as §1

NCI-H2228 = system: NCI-H2228
In short: as §1

HCC-44 = system: HCC-44
In short: as §1

NCI-H596 = system: NCI-H596
In short: as §1

NCI-H2342 = system: NCI-H2342
In short: as §1

SK-MES-1 = system: SK-MES-1
In short: as §1

NCI-H647 = system: NCI-H647
In short: as §1

NCI-H1734 = system: NCI-H1734
In short: as §1

SK-LU-1 = system: SK-LU-1
In short: as §1

NCI-H2087 = system: NCI-H2087
In short: as §1

HARA = system: HARA
In short: as §1

NCI-H1395 = system: NCI-H1395
In short: as §1

NCI-H661 = system: NCI-H661
In short: as §1

NCI-H2170 = system: NCI-H2170
In short: as §1

NCI-H1437 = system: NCI-H1437
In short: as §1

LC-2-ad = system: LC-2-ad
In short: as §1

LOU-NH91 = system: LOU-NH91
In short: as §1

NCI-H2405 = system: NCI-H2405
In short: as §1

BEN = system: BEN
In short: as §1

HCC-827 = system: HCC-827
In short: as §1

EKVX = system: EKVX
In short: as §1

Work on `COc1cc(N2CCC(C(N)=O)CC2)ccc1Nc1nc(N)c(Cl)c(Nc2ccccc2S(=O)(=O)C(C)C)n1` [HG-5-88-01] + Cc1cc(Nc2cc(N3CCN(C)CC3)nc(Sc3ccc(NC(=O)C4CC4)cc3)n2)n[nH]1 [Tozasertib] (partner 0.1 µM) yielded a relative viability (NCI-H1355; first compound 0.04 µM) of 0.601, a relative viability (NCI-H1355; first compound 0.1265 µM) of 0.545 and a relative viability (NCI-H1355; first compound 0.4 µM) of 0.493. It also gave a relative viability (NCI-H1355; first compound 1.265 µM) of 0.454, a relative viability (NCI-H1355; first compound 4 µM) of 0.342 and a relative viability (HCC-366; first compound 0.04 µM) of 0.169. The relative viability (HCC-366; first compound 0.1265 µM) was 0.0937, the relative viability (HCC-366; first compound 0.4 µM) was 0.0774 and the relative viability (HCC-366; first compound 1.265 µM) was 0.0436. It also gave a relative viability (HCC-366; first compound 4 µM) of 0.0402, a relative viability (NCI-H2009; first compound 0.04 µM) of 0.734 and a relative viability (NCI-H2009; first compound 0.1265 µM) of 0.753. For the same molecule, the relative viability (NCI-H2009; first compound 0.4 µM) was 0.611, the relative viability (NCI-H2009; first compound 1.265 µM) was 0.578 and the relative viability (NCI-H2009; first compound 4 µM) was 0.451. It also gave a relative viability (NCI-H2228; first compound 0.04 µM) of 0.259, a relative viability (NCI-H2228; first compound 0.1265 µM) of 0.13 and a relative viability (NCI-H2228; first compound 0.4 µM) of 0.159. It also gave a relative viability (NCI-H2228; first compound 1.265 µM) of 0.111, a relative viability (NCI-H2228; first compound 4 µM) of 0.133 and a relative viability (HCC-44; first compound 0.04 µM) of 1.1. For the same molecule, the relative viability (HCC-44; first compound 0.1265 µM) was 0.928, the relative viability (HCC-44; first compound 0.4 µM) was 0.745 and the relative viability (HCC-44; first compound 1.265 µM) was 0.328. The relative viability (HCC-44; first compound 4 µM) was 0.14, the relative viability (NCI-H596; first compound 0.04 µM) was 0.955 and the relative viability (NCI-H596; first compound 0.1265 µM) was 0.907. For the same molecule, the relative viability (NCI-H596; first compound 0.4 µM) was 0.877, the relative viability (NCI-H596; first compound 1.265 µM) was 1.09 and the relative viability (NCI-H596; first compound 4 µM) was 1. The relative viability (NCI-H2342; first compound 0.04 µM) was 0.563, the relative viability (NCI-H2342; first compound 0.1265 µM) was 0.547 and the relative viability (NCI-H2342; first compound 0.4 µM) was 0.574. It also gave a relative viability (NCI-H2342; first compound 1.265 µM) of 0.273, a relative viability (NCI-H2342; first compound 4 µM) of 0.443 and a relative viability (SK-MES-1; first compound 0.04 µM) of 0.843. The relative viability (SK-MES-1; first compound 0.1265 µM) was 0.909, the relative viability (SK-MES-1; first compound 0.4 µM) was 0.833 and the relative viability (SK-MES-1; first compound 1.265 µM) was 0.579. It also gave a relative viability (SK-MES-1; first compound 4 µM) of 0.158, a relative viability (NCI-H647; first compound 0.04 µM) of 0.236 and a relative viability (NCI-H647; first compound 0.1265 µM) of 0.403. It also gave a relative viability (NCI-H647; first compound 0.4 µM) of 0.309, a relative viability (NCI-H647; first compound 1.265 µM) of 0.203 and a relative viability (NCI-H647; first compound 4 µM) of 0.216. It also gave a relative viability (NCI-H1734; first compound 0.04 µM) of 0.267, a relative viability (NCI-H1734; first compound 0.1265 µM) of 0.235 and a relative viability (NCI-H1734; first compound 0.4 µM) of 0.225. It also gave a relative viability (NCI-H1734; first compound 1.265 µM) of 0.243, a relative viability (NCI-H1734; first compound 4 µM) of 0.27 and a relative viability (SK-LU-1; first compound 0.04 µM) of 0.337. It also gave a relative viability (SK-LU-1; first compound 0.1265 µM) of 0.311, a relative viability (SK-LU-1; first compound 0.4 µM) of 0.298 and a relative viability (SK-LU-1; first compound 1.265 µM) of 0.228. For the same molecule, the relative viability (SK-LU-1; first compound 4 µM) was 0.189, the relative viability (NCI-H2087; first compound 0.04 µM) was 0.266 and the relative viability (NCI-H2087; first compound 0.1265 µM) was 0.203. It also gave a relative viability (NCI-H2087; first compound 0.4 µM) of 0.262, a relative viability (NCI-H2087; first compound 1.265 µM) of 0.22 and a relative viability (NCI-H2087; first compound 4 µM) of 0.14. It also gave a relative viability (HARA; first compound 0.04 µM) of 0.108, a relative viability (HARA; first compound 0.1265 µM) of 0.132 and a relative viability (HARA; first compound 0.4 µM) of 0.0858. For the same molecule, the relative viability (HARA; first compound 1.265 µM) was 0.099, the relative viability (HARA; first compound 4 µM) was 0.0727 and the relative viability (NCI-H1395; first compound 0.04 µM) was 0.79. For the same molecule, the relative viability (NCI-H1395; first compound 0.1265 µM) was 0.692, the relative viability (NCI-H1395; first compound 0.4 µM) was 0.859 and the relative viability (NCI-H1395; first compound 1.265 µM) was 0.716. For the same molecule, the relative viability (NCI-H1395; first compound 4 µM) was 0.65, the relative viability (NCI-H661; first compound 0.04 µM) was 0.354 and the relative viability (NCI-H661; first compound 0.1265 µM) was 0.338. For the same molecule, the relative viability (NCI-H661; first compound 0.4 µM) was 0.333, the relative viability (NCI-H661; first compound 1.265 µM) was 0.397 and the relative viability (NCI-H661; first compound 4 µM) was 0.377. The relative viability (NCI-H2170; first compound 0.04 µM) was 0.768, the relative viability (NCI-H2170; first compound 0.1265 µM) was 0.67 and the relative viability (NCI-H2170; first compound 0.4 µM) was 0.678. It also gave a relative viability (NCI-H2170; first compound 1.265 µM) of 0.464, a relative viability (NCI-H2170; first compound 4 µM) of 0.635 and a relative viability (NCI-H1437; first compound 0.04 µM) of 0.409. It also gave a relative viability (NCI-H1437; first compound 0.1265 µM) of 0.398, a relative viability (NCI-H1437; first compound 0.4 µM) of 0.356 and a relative viability (NCI-H1437; first compound 1.265 µM) of 0.301. It also gave a relative viability (NCI-H1437; first compound 4 µM) of 0.316, a relative viability (LC-2-ad; first compound 0.04 µM) of 0.505 and a relative viability (LC-2-ad; first compound 0.1265 µM) of 0.517. The relative viability (LC-2-ad; first compound 0.4 µM) was 0.579, the relative viability (LC-2-ad; first compound 1.265 µM) was 0.299 and the relative viability (LC-2-ad; first compound 4 µM) was 0.255. It also gave a relative viability (LOU-NH91; first compound 0.04 µM) of 0.657, a relative viability (LOU-NH91; first compound 0.1265 µM) of 0.614 and a relative viability (LOU-NH91; first compound 0.4 µM) of 0.513. The relative viability (LOU-NH91; first compound 1.265 µM) was 0.376, the relative viability (LOU-NH91; first compound 4 µM) was 0.366 and the relative viability (NCI-H2405; first compound 0.04 µM) was 0.765. For the same molecule, the relative viability (NCI-H2405; first compound 0.1265 µM) was 0.704, the relative viability (NCI-H2405; first compound 0.4 µM) was 0.659 and the relative viability (NCI-H2405; first compound 1.265 µM) was 0.395. The relative viability (NCI-H2405; first compound 4 µM) was 0.416, the relative viability (BEN; first compound 0.04 µM) was 0.554 and the relative viability (BEN; first compound 0.1265 µM) was 0.482. For the same molecule, the relative viability (BEN; first compound 0.4 µM) was 0.509, the relative viability (BEN; first compound 1.265 µM) was 0.484 and the relative viability (BEN; first compound 4 µM) was 0.531. It also gave a relative viability (HCC-827; first compound 0.04 µM) of 0.475, a relative viability (HCC-827; first compound 0.1265 µM) of 0.439 and a relative viability (HCC-827; first compound 0.4 µM) of 0.401. It also gave a relative viability (HCC-827; first compound 1.265 µM) of 0.346, a relative viability (HCC-827; first compound 4 µM) of 0.263 and a relative viability (EKVX; first compound 0.04 µM) of 0.356. The relative viability (EKVX; first compound 0.1265 µM) was 0.396, the relative viability (EKVX; first compound 0.4 µM) was 0.374 and the relative viability (EKVX; first compound 4 µM) was 0.286.
